This note sets out measurements from paper PMC7248880, “Preclinical Incorporation Dosimetry of [^18F]FACH—A Novel ^18F-Labeled MCT1/MCT4 Lactate Transporter Inhibitor for Imaging Cancer Metabolism with PET” (Molecules, 2020).

Data set [1] in a line: Whole-body PET/CT distribution of activity. Type of data set: in vivo, piglets. On the procedure: Early accumulation in the bone structures might be related to defluorination. At later time points, activity also accumulated in the gall bladder and the urinary bladder.
Three piglets (age: ~6 weeks, weight: ~13–15 kg) were fasted on the day of imaging and received an intranuscular. injection of 1 mL azaperone and 4 mL ketamine to introduce anesthesia. […] During narcosis, the animals maintained spontaneous respiration and no mandatory ventilation was applied. The subjects were sequentially imaged after an iv injection (contralateral ear vein) of 156 ± 54 MBq [^18F]FACH (0.63 ± 0.49 µg) in a PET/CT system (Biograph16, SIEMENS, Erlangen, Germany). The piglets were positioned prone with legs alongside the body on a custom-made plastic trough including a piglet head-holder (Figure 5). The PET acquisition was divided into a sequential (4 × 9 min, 3 × 12 min) and a static part (1 × 24 min, 1 × 30 min, 1 × 36 min), each of which was preceded by a low-dose CT to acquire structural data for attenuation correction (AC) and anatomical orientation (Figure 6). Post mortem, the urine was collected by bladder punctuation, weighted, and divided into three 1 mL samples for activity measurements in a gamma-counter (Packard Cobra II 5003 Auto Gamma Counting System, GMI, Ramsey, MN, USA).
The image data were analyzed with ROVER (ABX, Radeberg, Germany; v. 3.0.46h). […]

Data set [2] in a line: Vital sign monitoring after iv injection. Type of data set: in vivo. Conditions: iv 156 ± 54 MBq (0.63 ± 0.49 µg), anesthetized piglets. The source says:
The radiation safety of the newly developed MCT1/MCT4-specific radioligand [^18F]FACH was preclinically investigated. […] Afterwards, volumes of interest (VOIs) of the various organs were manually defined using the respective whole-body CT dataset for anatomical orientation. The estimated TIACs were extrapolated to the human entity (Equation (2)), followed by estimation of the organ doses with OLINDA 2.1 and calculation of the effective dose using tissue weighting factors as published in Publication 103 of the International Commission of Radiation Protection (ICRP103). Finally, it can be concluded that [^18F]FACH is safe with respect to the radiation risk that is caused by its systemic application for PET studies. This supports and encourages the translation of this newly developed radiopharmaceutical to clinical study phases.
Three piglets (age: ~6 weeks, weight: ~13–15 kg) were fasted on the day of imaging and received an intranuscular. injection of 1 mL azaperone and 4 mL ketamine to introduce anesthesia. […] During narcosis, the animals maintained spontaneous respiration and no mandatory ventilation was applied. The subjects were sequentially imaged after an iv injection (contralateral ear vein) of 156 ± 54 MBq [^18F]FACH (0.63 ± 0.49 µg) in a PET/CT system (Biograph16, SIEMENS, Erlangen, Germany). […]

As to `CCCN(CCC[18F])c1ccc(/C=C(\C#N)C(=O)O)c(OC)c1` [[^18F]FACH, (E)-2-cyano-3-{4-[(3-[^18F]fluoropropyl)(propyl)amino]-2-methoxyphenyl}acrylic acid], the “distribution of activity (organs with high uptake)” value in data set [1] (one representative animal, PET at different times p.i.) was “high uptake in the liver, pancreas, small intestines, and spleen”. Also, the “route of excretion indicated by PET” value in data set [1] (rapid uptake in liver, later gall bladder) was “hepatobiliary excretion”. For the same compound, the “adverse effects based on vital sign monitoring” value in data set [2] is on record as “no adverse effects were observed”.
